Experimental findings from patent publication US20120142005A1, “METHOD FOR SCREENING OF REGENERATIVE MEDICINE” (TAKEDA PHARMACEUTICAL COMPANY LIMITED, priority 2009, published 2012) are described below.

Holding throughout (type): cell-based
The subject of assay [1] is human mesenchymal stem cells. Put plainly: Adipose differentiation of human mesenchymal stem cells: amount of adiponectin in culture solution, ELISA. The following applies: adhesion culture 8 days. Here is the method: In addition, when each of the 3 compounds was added, the amount of adiponectin contained in a corresponding culture solution was measured. Simultaneously with inducing adipose differentiation, 10 μM Y-27632, 10 μM HA-100, or 3 μM capsazepine was added, followed by adhesion culture for 8 days. After culture, the amount of adiponectin contained in the culture solution was measured using a human adiponectin ELISA kit (R&D systems).
Background: ELISA stands for enzyme-linked immunosorbent assay.

The test system of assay [2] is human mesenchymal stem cells. Put plainly: Adipose differentiation of human mesenchymal stem cells: fat droplet formation, oil red O staining. To be noted: adhesion culturing 5 days. On the procedure:
The influence of the 3 compounds on fat droplet formation was then examined. Simultaneously with inducing adipose differentiation, 10 μM Y-27632, 10 μM HA-100, or 3 μM capsazepine was added to an adipose differentiation induction medium, followed by adhesion culturing for 5 days. Thereafter, the cells were fixed with 4% paraformaldehyde (Wako Pure Chemical Industries Ltd.) for 30 minutes and then washed 3 times with PBS. In addition, the cells were stained with 0.36% oil red 0 (Chemicon) at room temperature for 50 minutes and then washed 3 times with distilled water, followed by observing and photographing the cell.

The test system of assay [3] is human mesenchymal stem cells. Put plainly: Adipose differentiation of human mesenchymal stem cells: expression of adiponectin and PPARγ by quantitative RT-PCR. The following applies: for level of expression of adiponectin: 3 μM compound added with adipose differentiation induction, 5 days, relative to DMSO control; for level of expression of PPARγ: adipose differentiation, 5 days (FIG. 12a). On the procedure:
There was possibility that the selected compounds control the differentiation of adult stem cells as well as ES cells. Accordingly, the influence of these selected compounds was examined on adipose differentiation of human mesenchymal stem cells. The human mesenchymal stem cells were purchased from Lonza and subjected to adhesion culturing using a medium made by addition of 10% calf fetal serum, 2 mM GlutaMAX-1, and 1× penicillin-streptomycin (Sigma) (hereinafter referred to as “growth medium”) to low-glucose DMEM (Invitrogen). Upon induction of an adipose differentiation, cells were seeded on a 96-well plate to 3,000 cells per well and then cultured overnight using the growth medium. Thereafter, the adipose differentiation was induced by exchanging the growth medium with an adipose differentiation induction medium (i.e., a medium made by addition of 10% calf fetal serum, 2 mM GlutaMAX-1, 0.5 mM 3-isobutyl-1-methylxanthine (IBMX, Wako Pure Chemical Industries Ltd.), 10 μg/ml insulin (Wako Pure Chemical Industries Ltd.), 1 μM dexamethasone (Wako Pure Chemical Industries Ltd.), 200 μM indomethacin (Wako Pure Chemical Industries Ltd.), and 1× penicillin-streptomycin (Sigma) to high-glucose DMEM (Invitrogen)). Simultaneously with inducing adipose differentiation, each selected compound was added to a final concentration of 3 μM, followed by culture for 5 days. After 5 days, the level of expression of adiponectin as a fat cell marker was measured using the same technique as that described in Example 1.
In addition, the level of expression of PPARγ as a master regulator of adipose differentiation for which the 3 compounds (Y-27632, HA-100 and capsazepine) were each added was also measured using the same technique.

Assay [4] relates to human mesenchymal stem cells. As to the kind of experiment: Bone differentiation of human mesenchymal stem cells: amount of calcium accumulated in cells. To be noted: 15 days. Here is the method:
In addition, the amount of calcium accumulated in cells was examined. Simultaneously with inducing bone differentiation, 3 μM BIO or 10 μM BrdU was added, followed by adhesion culture for 15 days. After culture, cells were washed with PBS, followed by dissolving the cells in a solution consisting of 10 mM Tris-HCl and 0.2% TritonX-100. Using a portion of the solution, the protein concentration was measured employing BCA protein assay kit (Pierce). Hydrochloric acid was added to a final concentration of 0.5 N to the remaining solution, which was then shaken overnight. The amount of calcium dissolving in the solution containing 0.5 N hydrochloric acid was measured using Calcium E-test Kit Wako (Wako Pure Chemical Industries Ltd.). The amount of calcium used the value corrected for the amount of protein for analysis.

Assay [5] deals with human mesenchymal stem cells. As to the kind of experiment: Bone differentiation of human mesenchymal stem cells: expression of Alp1, Runx2, Col1a1 and PTHR by quantitative RT-PCR. The following applies: 8 days; for level of expression of Alp1: 3 μM compound added with bone differentiation induction, relative to DMSO control. On the procedure: Then, the influence of the selected compounds was examined on bone differentiation of human mesenchymal stem cells. The human mesenchymal stem cells were maintained and cultured using the same technique as in Example 6. Cells were seeded on a 96-well plate to 1,000 cells per well and then cultured overnight using the growth medium. Thereafter, the bone differentiation was induced by exchanging the medium with a medium made by addition of 10% calf fetal serum, 2 mM GlutaMAX-1, 10 mMβ-glycerophosphate (Wako Pure Chemical Industries Ltd.), 0.05 mM ascorbic acid-2-phosphate (Wako Pure Chemical Industries Ltd.), 0.1 μM dexamethasone (Wako Pure Chemical Industries Ltd.), and 1× penicillin-streptomycin (Sigma) to low-glucose DMEM. Simultaneously with inducing bone differentiation, each selected compound was added to a final concentration of 3 μM, followed by adhesion culture for 8 days. After the end of culture, the level of expression of Alkaline phosphatase (Alp1) as an initial osteoblast marker was measured using the same technique as in Example 1.
The expression of other bone differentiation markers for which BIO or BrdU was added was also examined. Adhesion culture was performed for 8 days after adding BIO or BrdU, followed by measuring the levels of expression of runt-related transcription factor 2 (Runx2), collagen type 1 alpha 1 (Col1a1), and parathyroid hormone receptor (PTHR) using the same technique as in Example 1.

Assay [6] relates to human mesenchymal stem cells. Put plainly: Bone differentiation of human mesenchymal stem cells: staining with alkaline phosphatase. The following applies: 8 days. Here is the method:
To further verify the influence of compounds on bone differentiation, staining with alkaline phosphatase was performed. Simultaneously with inducing bone differentiation, 3 μM BIO or 10 μM BrdU was added, followed by adhesion culture for 8 days. After culture, cells were fixed with 4% paraformaldehyde (Wako Pure Chemical Industries Ltd.) for 30 minutes and then washed 3 times with PBS. Alkaline phosphatase kit III (Vector Laboratories) was used according to the appended protocol to stain with alkaline phosphatase.

The structures appear in SMILES notation.

Consider `C[C@@H](N)[C@H]1CC[C@H](C(=O)Nc2ccncc2)CC1` [Y-27632], for which, in assay [1] (10 μM compound), the “amount of adiponectin contained in the culture solution” value (shortened to “amount of adiponectin contained”) is “noticeably increased the amount of adiponectin”. Also, the “amount of fat droplets (oil red O) compared to DMSO control” value (“amount … compared to DMSO control” for short) in assay [2] (10 μM compound) is “the amount of fat droplets increased”. Also, in assay [3], the “level of expression of adiponectin” value was “increase the level of expression of adiponectin” and the “level of expression of PPARγ” value was “increasing the level of expression of PPARγ in a concentration-dependent manner”.
As for `O=c1[nH]c(=O)n([C@H]2C[C@H](O)[C@@H](CO)O2)cc1Br` [BrdU, 5-Bromo-2′-deoxyuridine], the “amount of calcium in cells, corrected for amount of protein” value in assay [4] (10 μM compound) is given as “increased the amount of calcium in cells”. Further, the “level of expression of Alp1” value in assay [5] is recorded as “noticeably increasing the level of expression of Alp1”. Also, in assay [5] (10 μM compound), the “level of expression of Col1a1” value is listed as “noticeably increased”, the “level of expression of PTHR” value is reported as “noticeably increased” and the “level of expression of Runx2” value is “noticeably increased”. In assay [6] (10 μM compound), the “stainability with alkaline phosphatase (alkaline phosphatase activity)” value is “increased the stainability with alkaline phosphatase”.
On to `O=S(=O)(c1cccc2cnccc12)N1CCNCC1` [HA-100], for which the “amount of adiponectin contained” value in assay [1] (10 μM compound) is given as “noticeably increased the amount of adiponectin”. Besides, the “amount … compared to DMSO control” value in assay [2] (10 μM compound) is “the amount of fat droplets increased”. In assay [3], the “level of expression of adiponectin” value was “increase the level of expression of adiponectin” and the “level of expression of PPARγ” value was “increasing the level of expression of PPARγ in a concentration-dependent manner”.
`Oc1cc2c(cc1O)CN(C(=S)NCCc1ccc(Cl)cc1)CCC2` [capsazepine]: in assay [1] (3 μM compound), the “amount of adiponectin contained” value is recorded as “no action of increasing the amount of adiponectin”. In addition, the “amount … compared to DMSO control” value in assay [2] (3 μM compound) is “no noticeable activity of increasing fat droplet formation”. Moreover, the “level of expression of adiponectin” value in assay [3] is given as “increase the level of expression of adiponectin”.
On to `O=C1Nc2cc(Br)ccc2/C1=C1/Nc2ccccc2/C1=N\O` [BIO, 6-bromoindirubin-3′ oxime], for which the “amount of calcium in cells, corrected for amount of protein” value in assay [4] (3 μM compound) was “increased the amount of calcium in cells”. Further, the “level of expression of Alp1” value in assay [5] is listed as “noticeably increasing the level of expression of Alp1”. Further, in assay [5] (3 μM compound), the “level of expression of Col1a1” value is listed as “noticeably increased”, the “level of expression of PTHR” value is given as “noticeably increased” and the “level of expression of Runx2” value was “noticeably increased”. Also, in assay [6] (3 μM compound), the “stainability with alkaline phosphatase (alkaline phosphatase activity)” value is reported as “increased the stainability with alkaline phosphatase”.
